10 compounds from patent US12479803B2, “Antimalarial compounds” (UNIVERSITY OF CENTRAL FLORIDA RESEARCH FOUNDATION, INC., priority 2019, dated 2025) can be followed below.

Data set [1] relates to CQ-resistant (Dd2) strain of P. falciparum. Nature of the data set: In vitro antiplasmodial activity, SYBR Green I fluorescence assay, Dd2 strain. It counts as cell-based, Plasmodium falciparum. As to the method: (§1) A set of 104 new styrylquinoline derivatives were synthesized and investigated for in vitro their antimalarial activity. To test antimalarial activities, different dilutions of compounds were added to P. falciparum culture. Following 72 h incubation at 37° C. in an atmosphere containing 5% CO2, the inhibitory property of the compounds were determined by SYBR Green I fluorescence assay. Meanwhile, SARs studies were conducted.
The SAR studies were focused on improving the in vitro activity of 2-arylvinylquinolines against the CQ-resistant Pf Dd2 strain.

Data set [2] in a line: Cytotoxicity assay using MTS in human hepatocytes. The settings on record: human; Table 6B, unit inferred; footnote IC50 (HepG2); read-out: Cytotoxic activity HepG2 (converted). Type of data set: cell-based.
For data set [3], the system named is HepG2. Nature of the data set: Cytotoxicity assay using MTS in human hepatocytes. It counts as cell-based. As to conditions: for SI, selectivity index = [IC50 (HepG2)/IC50 (Dd2)]: HepG2 versus Dd2.
Data set [4] has as its system P. falciparum 3D7 strain (CQ-sensitive). Nature of the data set: In vitro antiplasmodium activity, 3D7 strain. It counts as cell-based, Plasmodium falciparum. As to conditions: read-out: Antiplasmodium activity 3D7 (converted). As to the method:
as §1

For data set [5], the system named is β-hematin crystal formation. Nature of the data set: β-hematin inhibition experiment. Type of data set: biochemical. The settings on record: 100 μM hemin, 16 h at 37° C., up to 200 μM compound. On the procedure:
CQ and other aminoquinolines are known to fight against the malaria parasites by blocking hematin biocrystallization (hemozoin formation) through π-π stacking between the aminoquinoline scaffold and the heme. As a result, the accumulated toxic heme causes the parasite death by introducing oxidative membrane damage. β-hematin inhibition experiments were performed to determine possible mode of actions of arylvinylquinolines. FIG. 5A is an example according to various embodiments illustrating images of β-hematin crystals after incubation of 100 μM hemin, propionate buffer, phosphatidylcholine and, several concentrations of compound for 16 h at 37° C. […] In FIGS. 5A and 5B, the data are mean±SEM.

Data set [6] in a line: In vitro microsomal turnover assay (metabolic stability). As to the method:
Selectivity of compounds were determined by cytoxicity assay using MTS [(3-(4,5-dimethylthiazol-2-yl)-5-(3-carboxymethoxyphenyl)-2-(4-sulfophenyl)-2H-tetrazolium) in human hepatocytes. The metabolic stability of compounds was determined in mouse liver microsomes using an NADPH-regenerating system. The aqueous solubility at pH 7.4 was determined by UV-visible absorption based method. The permeability was assessed by the in vitro double-sink parallel artificial membrane permeability assay 52 that is a model for the passive transport from the gastrointestinal tract into the blood stream.
To assess the metabolic stability, the selected compounds were subjected to an in vitro microsomal turnover assay with mouse liver microsomal preparations. This assay determines the percentage of the parent compound residues after 60 min incubation (Table 7).

Data set [7] concerns the target late stage (IV-V) gametocytes of 3D7 expressing luciferase parasite. Nature of the data set: In vitro gametocytocidal activity, late stage. Type of data set: cell-based, Plasmodium falciparum. The settings on record: late stage gametocytes, means and SEMs of three experiments. The source says: (§2) Late stage (IV-V) gametocytes are more refractory to antimalarial drugs than early-stage gametocytes and blood stage parasites, and thus fewer compounds are effective against late stage Pf gametocytes. […] FIGS. 4A and 4B are an examples according to various embodiments illustrating results showing the activity of compound 24 on gametocyte stages, based on an evaluation of the viability of gametocytes after the exposure of compound 24 on early (A) and late (B) gametocytes stages of 3D7 expressing luciferase parasite. In FIGS. 4A and 4B, EC50 data represent the means and SEMs of three experiments. Therefore, arylvinylquinolines represented good leads as new antimalarials with promising dual stage (blood and gametocyte) activity.

In data set [8] the test system is asynchronous Dd2 parasite cultures. Nature of the data set: Kill kinetic experiments (rate of killing, parasitocidal/parasitostatic). It counts as cell-based, Plasmodium falciparum. As to conditions: 5×EC50 (Atovaquone 6.6 nM) for 6, 12, 24 and 48 h. As to the method:
To study whether arylvinylquinolines exerted their antiplasmodial activity through a parasitocidal or parasitostatic mechanism, kill kinetic experiments in Dd2 strain were performed. […] After washing to remove the inhibitors at these time points, the growth of the cultures was continued to be assessed for 96 h.
FIGS. 3A, 3B, 3C, and 3D are examples according to various embodiments illustrating rate of killing and parasitocidal/parasitostatic activity determination of arylvinylquinolines. […] After each exposure, cultures were washed three times in RPMI, resuspended in culture media, and monitored for parasite growth daily for 4 days. DHA and Atovaquone (50 nM and 6.6 nM) were included as fast and slow acting controls, respectively. Parasitemia was determined by microscopy of Giemsa stained smear.

Data set [9] deals with tightly synchronized Dd2 parasites. Nature of the data set: Developmental stage specific action (Giemsa microscopy and flow cytometry). The settings on record: 5×EC50, treated at 6, 18, 30 and 42 h post-invasion. Type of data set: cell-based, Plasmodium falciparum. As to the method:
Accurate definition of the timing of action of antimalarial agents could give valuable insights into the developmental growth and clinical clearance of the parasite. To further understand the antimalarial activity of arylvinylquinolines, the developmental stage specific action of the most promising compound 24 was determined by both microscopy and flow cytometry analysis. Tightly synchronized cultures were exposed to 5×EC50 concentration of compound 24 at 6, 18, 30 and 42 hours post-invasion (HPI) of the merozoites. Microscopic analysis of Giemsa-stained-thin smears and flow cytometric evaluation were performed at 12 h intervals.
In FIGS. 2A and 2B, the results are representative of three independent biological replicates.
A general note: A flow cytometer gives signals particle by particle.

Data set [10] concerns the target early stage (I-III) gametocytes of 3D7 expressing luciferase parasite. Nature of the data set: In vitro gametocytocidal activity, early stage. It counts as cell-based, Plasmodium falciparum.
Text: as §2

The mark [11] stands for this setting: CQ-resistant (Dd2) strain, 72 h incubation, read-out: EC50 (nmol).
The mark [12] stands for this setting: Table 6A, unit not given (text gives nM), footnote calls it IC50, read-out: Antiplasmodium activity Dd2 (converted).
Where [13] appears, read: Table 6B, unit inferred, footnote IC50 (HepG2), read-out: Cytotoxic activity HepG2 (converted).
The mark [14] stands for this setting: mouse liver microsomes, 60 min incubation.
[15] abbreviates: Table 6A, nM, footnote calls it IC50.
Where [16] appears, read: Plasmodium falciparum, 3D7, read-out: Early stage IC50 (nM).

Read-outs that look alike come from different tables or passages of the source.

Consider `CCN(CC)CCCC(C)Nc1ccnc2cc(Cl)ccc12` (stereo not drawn) [CQ, Chloroquine, reference compound], for which, in data set [1], the “RI, resistance index = [IC50 (Dd2)/IC50 (3D7)]” value (shortened to “RI, resistance index =”) stood at 9.8. The EC50 was 174 ± 15.5 nM in [1] (Plasmodium falciparum, DD2, 72 h, CQ-resistant (Dd2) strain, 72 h incubation); 174 ± 15.5 nM in [1] (Plasmodium falciparum, DD2, read-out: Antiplasmodium activity Dd2, Table 6A, unit not given (text gives nM), footnote calls it IC50); 17.8 ± 5.5 nM in data set [4] (Plasmodium falciparum, 3D7, Table 6A, nM, footnote calls it IC50). In [2], the IC50 is 10400 ± 860 nM. Also, in data set [3], the “SI, selectivity index = [IC50 (HepG2)/IC50 (Dd2)]” value (shortened to “SI, selectivity index =”) is listed as 60. Also, the “inhibitory activity towards β-hematin formation” value in data set [5] is “potently inhibited”.
For the compound `CN(C)CCNc1cc(/C=C/c2ccncc2)nc2ccc(Cl)cc12` [Compound 50], the “RI, resistance index =” value in data set [1] is recorded as 0.6 0.6 0.5 0.3 0.5. For the same compound, the EC50 is 28.8 ± 5 nM in data set [1] (setting [11]); 28.8 ± 5 nM in [1] (Dd2 strain, read-out: EC50); 28.8 nM in data set [1] (setting [12]); 56.6 nM in data set [4]. For the same compound, the “SI, selectivity index =” value in data set [3] was found to be 212. Further, the IC50 in [3] (setting [13]) was 6110 nM. For the same compound, the “Clint” value in data set [6] (mouse liver microsomes) was 62.2 µL/min/mg. The “Projected t1/2” value in [6] (mouse liver microsomes (MLM)) was determined as 22.3 min. Also, the “% remaining after 60 min” value in data set [6] (setting [14]) is 15.5%.
Take `Fc1ccc(/C=C/c2cc(NCc3ccccn3)c3cc(Cl)ccc3n2)cc1` [Compound 72]: the “RI, resistance index =” value in data set [1] turned out to be 0.6. Moreover, the EC50 in data set [1] (setting [11]) was 156 ± 34.5 nM; in [1] (Dd2 strain, read-out: EC50) it was 156 ± 34.5 nM; in data set [1] (setting [12]) it was 156 ± 34.5 nM; in data set [4] (setting [15]) it was 248 ± 35.1 nM. Moreover, the IC50 in data set [3] turned out to be 19800 ± 3270 nM. The “SI, selectivity index =” value in data set [3] was 127. Also, in [6], the “Projected t1/2” value is recorded as 65.3 min. Besides, in [6] (mouse, microsomes), the “Clint” value turned out to be 21.2 µL/min/mg. Moreover, the “% remaining after 60 min” value in [6] (mouse, microsomes, 1 h) is reported as 52.9%.
Regarding `CN1CCN(CCNc2cc(/C=C/c3ccc(F)cc3)nc3ccc(Cl)cc23)CC1` [Compound 86], the IC50 was determined as 2500 ± 424 nM in data set [7]; 3200 ± 491 nM in data set [3]; 910 ± 314 nM in data set [10] (early stage gametocytes, means and SEMs of three experiments, read-out: Early stage IC50). Also, in [1], the “RI, resistance index =” value was 1. Further, the EC50 in [1] (setting [11]) was 15.3 ± 3.4 nM; in data set [1] (setting [12]) it was 15.3 ± 3.4 nM; in data set [4] (setting [15]) it was 15.7 ± 2.9 nM. For the same compound, the “rate of killing (parasitemia after exposure and wash-out)” value in data set [8] is “remarkable reduction in parasitemias”. Further, in data set [3], the “SI, selectivity index =” value amounted to 209. Also, in data set [6], the “Projected t1/2” value is 60.3 min. Besides, the “Clint” value in data set [6] (mouse, microsomes) amounted to 23.0 µL/min/mg. For the same compound, the “% remaining after 60 min” value in data set [6] (mouse, microsomes, 1 h) amounted to 50.2%. In addition, in [9], the “stage-specific inhibition of P. falciparum growth” value is “stage-specific action at the trophozoite phase”. Moreover, the “inhibitory activity towards β-hematin formation” value in [5] is “much weaker than that of CQ”.
In the case of `Fc1ccc(/C=C/c2cc(NCCCCN3CCOCC3)c3cc(Cl)ccc3n2)cc1` [Compound 92], the EC50 is 2.4 ± 1.1 nM in data set [1] (setting [11]), 2.4 ± 1.1 nM in data set [1] (setting [12]) and 6.9 ± 1.3 nM in data set [4] (setting [15]). Moreover, the IC50 in data set [3] was determined as 3550 ± 384 nM. The “SI, selectivity index =” value in data set [3] turned out to be 1478. Also, the “Projected t1/2” value in data set [6] is 22.2 min. The “Clint” value in data set [6] (mouse, microsomes) came to 62.4 µL/min/mg. The “% remaining after 60 min” value in data set [6] (mouse, microsomes, 1 h) worked out at 15.4%.
Consider `Clc1ccc2nc(/C=C/c3ccncc3)cc(NCCCCN3CCOCC3)c2c1` [Compound 93], for which the EC50 is 9.9 ± 1.3 nM in [1] (setting [11]); 9.9 ± 1.3 nM in data set [1] (Dd2 strain, read-out: EC50); 9.9 nM in data set [1] (setting [12]); 20.8 nM in [4] (setting [15]). The IC50 in data set [3] is 5670 nM. The “SI, selectivity index =” value in data set [3] came to 561. Besides, the “Projected t1/2” value in data set [6] worked out at 14.4 min. Besides, the “Clint” value in data set [6] (mouse, microsomes) came out at 96.2 µL/min/mg. For the same compound, the “% remaining after 60 min” value in data set [6] (mouse, microsomes, 1 h) is reported as 5.62%.
Turning to `FC(F)(F)c1ccc(/C=C/c2cc(NCCCCN3CCOCC3)c3cc(Cl)ccc3n2)cc1` [Compound 98], the figures for the EC50 in data set [1] (setting [11]), in [1] (setting [12]) and in data set [4] (setting [15]) were 30.7 ± 5.2 nM, 30.7 ± 5.2 nM and 73.8 ± 9.7 nM, respectively. Besides, in data set [3], the IC50 was 10200 ± 2390 nM. In data set [3], the “SI, selectivity index =” value was determined as 332. In data set [6], the “Projected t1/2” value came out at 64.9 min. In addition, in [6] (mouse, microsomes), the “Clint” value was found to be 21.4 µL/min/mg. The “% remaining after 60 min” value in data set [6] (mouse, microsomes, 1 h) is given as 52.7%.
In the case of `Fc1ccc(/C=C/c2cc(NCCCCN3CCOCC3)c3cc(Cl)ccc3n2)cc1F` [Compound 105], the EC50 in data set [1] (setting [11]) was 25.5 ± 6.1 nM; in data set [1] (setting [12]) it was 25.5 nM; in [4] (setting [15]), 27.6 nM. The “SI, selectivity index =” value in data set [3] is 241. For the same compound, the IC50 in [3] (setting [13]) is 6140 nM. Besides, the “Clint” value in [6] (mouse liver microsomes) was found to be 53.7 µL/min/mg. Further, the “Projected t1/2” value in data set [6] (mouse liver microsomes (MLM)) is 25.8 min. Also, the “% remaining after 60 min” value in [6] (setting [14]) is listed as 19.9%.
In the case of `C[C@H]1[C@@H](O)O[C@@H]2O[C@@]3(C)CC[C@H]4[C@H](C)CC[C@@H]1[C@@]24OO3` [DHA, dihydroartemisinin, reference compound], the IC50 came to 37.4 ± 8.9 nM in [7] (Plasmodium falciparum, 3D7) and 17.4 ± 3.7 nM in data set [10] (setting [16]).
Take `CN(C)c1ccc2nc3ccc(=[N+](C)C)cc-3sc2c1` [Methylene blue, reference compound]: the IC50 in [7] (Plasmodium falciparum, 3D7) stood at 107 ± 46.3 nM; in data set [10] (setting [16]) it was 74.7 ± 21.9 nM.
